Structures are written as SMILES. Active and inactive are the calls of the source. No cut-off for these calls is given here.

The record followed here is ChEMBL document CHEMBL5634087, “Novel 5-aminopyrazoles endowed with anti-angiogenetic properties: Design, synthesis and biological evaluation” (Eur J Med Chem, 2023).

Series [1] deals with RAC-alpha serine/threonine-protein kinase (Homo sapiens) (UniProt P31749). The series is described as follows: Inhibition of AKT phosphorylation in serum starved VEGF stimulated HUVEC cells at 20 uM preincubated for 10 mins followed by VEGF addition and measured after 20 mins by Western blotting analysis relative to control. The series is classed as cell-based. Particulars: time 30.0 min.
RAC-alpha serine/threonine-protein kinase (Homo sapiens), sequence (P31749 whole entry): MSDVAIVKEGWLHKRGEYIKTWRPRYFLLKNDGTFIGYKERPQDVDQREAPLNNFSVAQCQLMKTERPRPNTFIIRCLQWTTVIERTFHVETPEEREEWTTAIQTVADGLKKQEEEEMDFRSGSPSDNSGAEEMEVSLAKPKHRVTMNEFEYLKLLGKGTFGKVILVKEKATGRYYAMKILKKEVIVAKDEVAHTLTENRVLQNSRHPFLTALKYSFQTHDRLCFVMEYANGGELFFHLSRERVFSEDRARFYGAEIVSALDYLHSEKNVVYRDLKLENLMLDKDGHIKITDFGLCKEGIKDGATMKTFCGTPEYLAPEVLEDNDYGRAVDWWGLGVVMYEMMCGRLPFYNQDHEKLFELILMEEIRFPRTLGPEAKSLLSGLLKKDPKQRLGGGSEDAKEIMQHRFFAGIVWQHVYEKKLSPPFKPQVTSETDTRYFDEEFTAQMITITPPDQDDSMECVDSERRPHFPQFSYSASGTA

Series [2] has as its system HFF. The series is described as follows: Antiangiogenic activity in confluent HFF cells assessed as relative migration rate at 1 uM incubated for 48 hrs by Hoechst 33342 staining based wound healing assay relative to control. The series is classed as functional, Homo sapiens.
For series [3], the system named is HUVEC. The series is described as follows: Antiangiogenic activity in confluent VEGF stimulated HUVEC cells assessed as inhibition of cell migration at 20 uM incubated for 24 to 48 hrs by Hoechst 33342 staining based wound healing assay. The series is classed as functional. Particulars: Homo sapiens, time 24-48 hrs.
For series [4], the system named is HFF. The series is described as follows: Antiangiogenic activity in confluent HFF cells assessed as relative migration rate at 1 uM incubated for 24 hrs by Hoechst 33342 staining based wound healing assay relative to control. The series is classed as functional, Homo sapiens.
A further series concerns MDA-MB-231. The series is described as follows: Antiproliferative activity against human MDA-MB-231 cells assessed as growth rate at 10 uM incubated for 48 hrs by MTT assay relative to control. The series is classed as functional. The settings on record: read-out: Activity. (In general: Formazan colour is commonly taken as a measure of viable cells.)
For a further series, the system named is HeLa. The series is described as follows: Antiproliferative activity against human HeLa cells assessed as growth rate at 10 uM incubated for 48 hrs by MTT assay relative to control. The series is classed as functional. The settings on record: read-out: Activity.
In the next series the test system is HepG2. As to the kind of experiment: Antiproliferative activity against human HepG2 cells assessed as growth rate at 10 uM incubated for 48 hrs by MTT assay relative to control. Particulars: read-out: Activity. Type of series: functional.
Series [5] in a line: Cytotoxicity against human GM06114 cells assessed as growth rate at 10 uM incubated for 48 hrs by MTT assay relative to control. The series is classed as toxicity, cell-based. Particulars: gm06114, 48 h.
The next series relates to SK-MEL-28. As to the kind of experiment: Antiproliferative activity against human SK-MEL-28 cells assessed as growth rate at 10 uM incubated for 48 hrs by MTT assay relative to control. The series is classed as functional. The settings on record: read-out: Activity.
In series [6] the target is Mitogen-activated protein kinase; ERK1/ERK2 (Homo sapiens) (UniProt P27361+P28482). The series is described as follows: Inhibition of ERK1/2 phosphorylation in serum starved bFGF stimulated HFF cells assessed as residual phosphorylated ERK1/2 level at 20 uM preincubated for 10 mins followed by bFGF addition and measured after 20 mins by Western blotting analysis relative to control. Type of series: cell-based. The settings on record: time 30.0 min. On the technique in general: A western blot detects proteins with antibodies after separation by electrophoresis.
Mitogen-activated protein kinase; ERK1/ERK2 (Homo sapiens), sequence (P27361 whole entry, looked up): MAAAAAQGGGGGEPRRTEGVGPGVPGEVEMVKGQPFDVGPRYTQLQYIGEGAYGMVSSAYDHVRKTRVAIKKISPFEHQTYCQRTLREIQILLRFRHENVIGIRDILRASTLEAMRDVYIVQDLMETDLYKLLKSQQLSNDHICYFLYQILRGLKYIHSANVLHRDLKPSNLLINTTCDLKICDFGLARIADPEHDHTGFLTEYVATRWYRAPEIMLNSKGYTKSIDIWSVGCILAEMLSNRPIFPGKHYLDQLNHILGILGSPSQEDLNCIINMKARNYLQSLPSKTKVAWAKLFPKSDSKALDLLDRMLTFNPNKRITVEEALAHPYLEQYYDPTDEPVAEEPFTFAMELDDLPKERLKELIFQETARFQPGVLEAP
Mitogen-activated protein kinase; ERK1/ERK2 (Homo sapiens), sequence (P28482 whole entry, looked up): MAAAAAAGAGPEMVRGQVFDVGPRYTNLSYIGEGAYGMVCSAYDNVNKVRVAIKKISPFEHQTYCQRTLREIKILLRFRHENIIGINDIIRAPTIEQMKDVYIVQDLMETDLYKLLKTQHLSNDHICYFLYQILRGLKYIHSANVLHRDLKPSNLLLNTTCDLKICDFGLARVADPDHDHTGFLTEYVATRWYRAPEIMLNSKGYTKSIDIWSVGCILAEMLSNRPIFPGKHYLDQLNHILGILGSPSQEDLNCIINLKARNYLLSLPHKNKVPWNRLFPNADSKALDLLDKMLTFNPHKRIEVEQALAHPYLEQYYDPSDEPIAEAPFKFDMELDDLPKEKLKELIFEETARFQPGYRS

In a further series the test system is A549. The series is described as follows: Antiproliferative activity against human A549 cells assessed as growth rate at 10 uM incubated for 48 hrs by MTT assay relative to control. The series is classed as functional. Particulars: read-out: Activity.
The subject of series [7] is HFF. The series is described as follows: Antiangiogenic activity in confluent HFF cells assessed as inhibition of cell migration at 20 uM incubated for 24 to 48 hrs by Hoechst 33342 staining based wound healing assay. The series is classed as functional. The settings on record: Homo sapiens, time 24-48 hrs.
For series [8], the system named is HUVEC. The series is described as follows: Antiangiogenic activity in confluent VEGF stimulated HUVEC cells assessed as relative cell migration rate at 20 uM incubated for 48 hrs by Hoechst 33342 staining based wound healing assay relative to control. The series is classed as functional, Homo sapiens.
The test system of another series is SK-BR-3. As to the kind of experiment: Antiproliferative activity against human SK-BR-3 cells assessed as growth rate at 10 uM incubated for 48 hrs by MTT assay relative to control. Particulars: read-out: Activity. Type of series: functional.
The subject of series [9] is HUVEC. The series is described as follows: Antiangiogenic activity in confluent VEGF stimulated HUVEC cells assessed as relative cell migration rate at 20 uM incubated for 24 hrs by Hoechst 33342 staining based wound healing assay relative to control. The series is classed as functional, Homo sapiens.
The next series deals with MCF7. The series is described as follows: Antiproliferative activity against human MCF7 cells assessed as growth rate at 10 uM incubated for 48 hrs by MTT assay relative to control. The series is classed as functional. Particulars: read-out: Activity.
A further series has as its system SK-OV-3. As to the kind of experiment: Antiproliferative activity against human SK-OV-3 cells assessed as growth rate at 10 uM incubated for 48 hrs by MTT assay relative to control. The settings on record: read-out: Activity. Type of series: functional.
In series [10] the target is RAC-alpha serine/threonine-protein kinase (Homo sapiens) (UniProt P31749). The series is described as follows: Inhibition of AKT phosphorylation in serum starved bFGF stimulated HFF cells at 20 uM preincubated for 10 mins followed by bFGF addition and measured after 20 mins by Western blotting analysis. Type of series: cell-based. Particulars: time 30.0 min.
Series [11] relates to HUVEC. As to the kind of experiment: Antiangiogenic activity in confluent VEGF stimulated HUVEC cells assessed as inhibition of cell migration at 20 uM incubated for 48 hrs by Hoechst 33342 staining based wound healing assay. The series is classed as functional. The settings on record: Homo sapiens.

As usually defined, the inhibition is the relative decrease from the control value, in per cent. In turn, `Cc1nc(Nc2ncc(C(=O)Nc3c(C)cccc3Cl)s2)cc(N2CCN(CCO)CC2)n1` [DASATINIB ANHYDROUS] gave an inhibition in [1] of 24.1%. For the same compound, the Activity in the series on HFF [2] is given as 27.32%; with HFF [4], 27.31%. The outcome in the series on HUVEC [3] was inactive.
In the case of `CCOC(=O)c1c(Nc2ccc(Cl)cc2)nn(CC(OC(=O)Nc2cccc(C(F)(F)F)c2)c2ccccc2)c1N` (stereo unspecified), the growth at 10 µM with MDA-MB-231 was 121%; in the series on HeLa, 65.9%; with HepG2, 120%; in the series on SK-MEL-28, 112%; in the series with A549, 89.2%; with SK-BR-3, 124%. Further, the growth at 10 µM with MCF7 turned out to be 128%; in the series on SK-OV-3, 122%. Further, the Activity is 131.1% in series [5], more than 70% in [6], more than 50% in the series on HUVEC [8] and more than 50% with HUVEC [9]. In addition, the result with HFF [7] was inactive.
Consider `CCCCC(O)Cn1nc(Nc2ccccc2Cl)c(C(=O)OCC)c1N` (stereo unspecified), for which the inhibition result in [10] is “Active”. In addition, the growth at 10 µM is 126% in the series on MDA-MB-231; 104% with HeLa; 102% with HepG2; 109% in the series on SK-MEL-28; 138% with A549; 103% in the series on SK-BR-3. In addition, the growth at 10 µM was found to be 140% with MCF7 and 125% with SK-OV-3. The Activity in series [5] was 92.72%; in series [6] it was more than 70%; with HUVEC [9] it was 47.74%. The outcome in the series with HUVEC [11] was inactive. In the series with HFF [7], the result was Active.
